Several values for one entry are separate records, joined by “and”; a condition that tells them apart may be missing. Equal entries are not always repeated.
Assays:
rats and Rhesus monkeys = settings: cited from earlier work; for teratogenicity in rats as compared with Rhesus monkeys: administered to rats at corresponding generation stages
36p Tg mice = test: Teratogenicity and fetal toxicity effects of thalidomide in 36p Tg mouse; settings: for Details of Malformation: number of fetuses in brackets
Description: Frozen eggs of the transgenic mouse were prepared in accordance with “Example 4: Production of fertilized egg,” and fertilized eggs of the transgenic mouse were cryopreserved. The frozen fertilized eggs were melted, and 20 eggs were respectively transplanted into the oviducts of pseudopregnant female mice of the ICR lineage, and implanted. On the 9th day of gestation, thalidomide was administered into the maternal peritoneal cavity. The effect of thalidomide was tested at the dosage of: 100 mg/kg, and 200 mg/kg. A mixed solution of Tween 20 and physiological saline (1:3) was used as a vehicle. On the day before the delivery, which is the 19th day of gestation, the maternal body was subjected to laparotomy to observe the conditions inside the womb and the presence of teratogenicity and fetal toxicity in the generated and grown fetus. Also, tissues were collected from the fetuses generated and grown in the womb, or vestige of fetal matter in the womb, DNA was extracted therefrom, and the genotype was assayed by PCR The results are summarized in Table 4.

rat = settings: early test using a rat; cited from earlier work
rabbit = settings: administration of cyclooxygenase inhibitor; cited from earlier work
Salmonella TA100 = settings: cited from earlier work

## CN(Cc1cnc2nc(N)nc(N)c2n1)c1ccc(C(=O)N[C@@H](CCC(=O)O)C(=O)O)cc1 [methotrexate]
Rats and Rhesus monkeys
  teratogenicity in rats as compared with Rhesus monkeys: teratogenicity was observed at a lower dose
Rats and Rhesus monkeys; teratogenic sensitivity, rats versus monkeys
  sensitivity of rats higher than that of monkeys: 20 times

## O=c1[nH]cc(F)c(=O)[nH]1 [5-fluorouracil]
Rats and Rhesus monkeys
  teratogenicity in rats as compared with Rhesus monkeys: teratogenicity was observed at a lower dose

## NC(=O)NO [hydroxylurea]
Rats and Rhesus monkeys
  teratogenicity in rats as compared with Rhesus monkeys: teratogenicity was observed at a lower dose

## O=C1CCC(N2C(=O)c3ccccc3C2=O)C(=O)N1 (centres unmarked) [Thalidomide, thalidomide]
36p Tg mice; 100 mg/kg i.p. day 9 of gestation, laparotomy day 19, single dam
  Implants Total: 15 and 14
36p Tg mice; 100 mg/kg, Total of 2 dams
  Implants Total: 29
  Implants/dam: 14.5
  Live fetuses/dam: 1.5
  Malformations total (%): 33.3%
  Malformations/Tg (%): 100.0%
  Malformations/nTg (%): 0.0%
  Resorptions (%): 89.7%
  Tg fetuses (%): 33.3%
  Tg/Malformations (%): 100.0%
  nTg fetuses (%): 66.7%
36p Tg mice; 100 mg/kg
  Details of Malformation: 100 mg/kg: umbilical hernia (1)
36p Tg mice; 100 mg/kg, single dam
  Malformations/Tg (%): 100.0%
  Malformations/nTg (%): 0.0%
  Resorptions (%): 93.3% and 85.7%
  Tg/Malformations (%): 100.0%
36p Tg mice; 200 mg/kg i.p. day 9 of gestation, laparotomy day 19, single dam
  Implants Total: 8 and 16
36p Tg mice; 200 mg/kg, Total of 2 dams
  Implants Total: 24
  Implants/dam: 12.0
  Live fetuses/dam: 3.0
  Malformations total (%): 16.7%
  Malformations/Tg (%): 33.3%
  Malformations/nTg (%): 0.0%
  Resorptions (%): 70.8%
  Tg fetuses (%): 50.0%
  Tg/Malformations (%): 100.0%
  nTg fetuses (%): 50.0%
36p Tg mice; 200 mg/kg
  Details of Malformation: 200 mg/kg: umbilical hernia (1)
36p Tg mice; 200 mg/kg, single dam
  Malformations total (%): 16.7%
  Malformations/Tg (%): 33.3%
  Malformations/nTg (%): 0.0%
  Resorptions (%): 100.0% and 56.3%
  Tg fetuses (%): 50.0%
  Tg/Malformations (%): 100.0%
  nTg fetuses (%): 50.0%
Rats and Rhesus monkeys; teratogenic sensitivity, monkeys versus rats
  sensitivity of monkeys relative to that of rats: ≥ 10 times
Rats and Rhesus monkeys; teratogenic sensitivity
  sensitivity of rats compared with that of Rhesus monkeys: significantly lower
rat
  malformation of the fetus: did not develop any malformation

## CC1=C(/C=C/C(C)=C/C=C/C(C)=C/C(=O)O)C(C)(C)CCC1 [retinoic acid]
Rats and Rhesus monkeys
  teratogenicity in rats as compared with Rhesus monkeys: teratogenicity was observed at a lower dose

## CC(=O)Oc1ccccc1C(=O)O [acetylsalicylic acid]
rabbit
  effect on teratogenicity of thalidomide: suppresses the teratogenicity of thalidomide
Rats and Rhesus monkeys
  teratogenicity in rats as compared with Rhesus monkeys: teratogenicity was observed at a lower dose

## Aflatoxin B1
Salmonella TA100
  metabolic activation in mutagenicity test: efficiently activated

## CC[C@]1(O)C[C@H]2CN(CCc3c([nH]c4ccccc34)[C@@](C(=O)OC)(c3cc4c(cc3OC)N(C=O)[C@H]3[C@@](O)(C(=O)OC)[C@H](OC(C)=O)[C@]5(CC)C=CCN6CC[C@]43[C@@H]65)C2)C1 [vincristine]
Rats and Rhesus monkeys
  teratogenicity in rats as compared with Rhesus monkeys: teratogenicity was observed at a lower dose
